Measured values from the supplement of paper PMC12137928.
Structures can show the parent of a compound that is named as a salt.

System: HCT116
Details: 72 h
Outline: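 HCT116 cells were seeded at 250 per well in 1536-well plates with 5 h allowed for attachment. CellTiter-Glo luminescence was normalized against vehicle (0%) and positive control (-100%) before pattern correction. The IC50 and maximal efficacy figures derive from four-parameter Hill fits.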

Compound | IC50 cell viability (ICRF193 0 nM) [µM] | IC50 cell viability (ICRF193 200 nM) [µM]
NC[C@@H]1CC[C@@H](N)[C@@H](O[C@H]2[C@H](O)[C@@H](O[C@H]3O[C@H](CO)[C@@H](O)[C@H](N)[C@H]3O)[C@H](N)C[C@@H]2N)O1 [DIBEKACIN] | > 45.8 | > 45.8
CC(C)(C)c1ccc2c(S(=O)(=O)O)c(C(C)(C)C)ccc2c1 [DIBUNATE SODIUM] | > 45.8 | > 45.8
CCN(CC)C(=O)N1CCN(C)CC1 [DIETHYLCARBAMAZINE CITRATE] | > 45.8 | > 45.8
CN[C@@H]1[C@H](O[C@H]2[C@H](O[C@H]3[C@H](O)[C@@H](O)[C@H](NC(=N)N)[C@@H](O)[C@@H]3NC(=N)N)O[C@@H](C)[C@]2(O)CO)O[C@@H](CO)[C@H](O)[C@H]1O [DIHYDROSTREPTOMYCIN [5mM]] | > 45.8 | > 45.8
CC/C=C\C/C=C\C/C=C\C/C=C\C/C=C\C/C=C\CCC(=O)O [DOCONEXENT] | > 45.8 | > 45.8
Cc1cc(CC(C)C[Si](C)(O[Si](C)(C)C)O[Si](C)(C)C)c(O)c(-n2nc3ccccc3n2)c1 (stereo not given) [DROMETRIZOLE TRISILOXANE] | > 45.8 | > 45.8
CN[C@H]1C(=O)N[C@@H]2Cc3ccc(cc3)Oc3cc4cc(c3O[C@@H]3O[C@H](C(=O)O)[C@@H](O)[C@H](O)[C@H]3NC(=O)CCCCCCCCC(C)C)Oc3ccc(cc3Cl)[C@@H](O)[C@@H]3NC(=O)[C@H](NC(=O)[C@@H]4NC(=O)[C@@H](NC2=O)c2cc(cc(O)c2Cl)Oc2cc1ccc2O)c1ccc(O)c(c1)-c1c(O[C@H]2O[C@H](CO)[C@@H](O)[C@H](O)[C@@H]2O)cc(O)cc1[C@@H](C(=O)NCCCN(C)C)NC3=O [Dalbavancin] | > 45.8 | > 45.8
CCNC(=O)NCCCOc1cccc(CN2CCCCC2)c1 [Dalcotidine] | > 45.8 | > 45.8
CCN(CC)CCS(=O)(=O)[C@@H]1CCN2C(=O)c3coc(n3)CC(=O)C[C@H](O)/C=C(C)/C=C/CNC(=O)/C=C/[C@@H](C)[C@@H](C(C)C)OC(=O)[C@@H]12 [Dalfopristin] | > 45.8 | > 45.8
CN1C[C@@H]2C[C@H]1CN2c1cc2c(cc1F)c(=O)c(C(=O)O)cn2C1CC1 [Danofloxacin] | > 45.8 | > 45.8
O=C1c2cccc(O)c2C(=O)c2c(O)cccc21 [Danthron] | > 45.8 | > 45.8
O=C1CN(/N=C/c2ccc(-c3ccc([N+](=O)[O-])cc3)o2)C(=O)N1 [Dantrolene sodium] | > 45.8 | > 45.8
CCOc1ccc(Cc2cc([C@@H]3O[C@H](CO)[C@@H](O)[C@H](O)[C@H]3O)ccc2Cl)cc1 [Dapagliflozin] | > 45.8 | > 45.8
Cc1ccccc1N1CCN(CCc2nnc3n2CCCC3)CC1 [Dapiprazole hydrochloride] | > 45.8 | > 45.8
Nc1ccc(S(=O)(=O)c2ccc(N)cc2)cc1 [Dapsone] | > 45.8 | > 45.8
CCCCCCCCCC(=O)N[C@@H](Cc1c[nH]c2ccccc12)C(=O)N[C@H](CC(N)=O)C(=O)N[C@@H](CC(=O)O)C(=O)N[C@@H]1C(=O)NCC(=O)N[C@@H](CCCN)C(=O)N[C@@H](CC(=O)O)C(=O)N[C@H](C)C(=O)N[C@@H](CC(=O)O)C(=O)NCC(=O)N[C@H](CO)C(=O)N[C@@H]([C@H](C)CC(=O)O)C(=O)N[C@@H](CC(=O)c2ccccc2N)C(=O)O[C@@H]1C [Daptomycin] | > 45.8 | > 45.8
C[N+](C)(C)CCCCCCCCCC[N+](C)(C)C [Decamethonium bromide] | > 45.8 | > 45.8
CCCCCCCCCC(=O)O [Decanoic acid] | > 45.8 | > 45.8
Nc1ncn([C@H]2C[C@H](O)[C@@H](CO)O2)c(=O)n1 [Decitabine] | > 45.8 | > 45.8
CCCCCCCCCCOc1cc2c(O)c(C(=O)OCC)cnc2cc1OCC [Decoquinate] | > 45.8 | > 45.8
Cc1c(O)c(=O)ccn1C [Deferiprone] | > 45.8 | > 45.8
CC(=O)OCC(=O)[C@@]12N=C(C)O[C@@H]1C[C@H]1[C@@H]3CCC4=CC(=O)C=C[C@]4(C)[C@H]3[C@@H](O)C[C@@]12C [Deflazacort] | > 45.8 | > 45.8
C[C@H](CCC(=O)O)[C@H]1CC[C@H]2[C@@H]3C(=O)C[C@@H]4CC(=O)CC[C@]4(C)[C@H]3CC(=O)[C@]12C [Dehydrocholic acid] | > 45.8 | > 45.8
C[C@]12CC[C@H](OS(=O)(=O)O)CC1=CC[C@@H]1[C@@H]2CC[C@]2(C)C(=O)CC[C@@H]12 [Dehydroepiandrosterone Sulfate (sodium salt)] | > 45.8 | > 45.8
C[C@]12CC[C@H](O)CC1=CC[C@@H]1[C@@H]2CC[C@]2(C)C(=O)CC[C@@H]12 [Dehydroepiandrosterone] | > 45.8 | > 45.8
